# Experimental data: PubChem BioAssay AID1918934 (Molecular Pharmacology Branch, DTP, NCI, 2023)
# Test system: 292921-168-R-J2-PDC complex spheroid viability
# Assay: Anticancer human tumor 292921-168-R-J2-PDC patient-derived pancreatic carcinoma cell line growth inhibition
# Conditions: for IC50: curve of first compound; for viability, T/C: stronger effect = lower value
# Method in brief: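 Complex spheroids of tumor cells with HUVEC and human MSCs, exposed to iadademstat combined with other agents. Each agent tested in half-log steps from near clinical Cmax (else 10 microM top), DMSO ≤0.25%.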
# [1] = second compound 0.1 µM, first compound 0.000316 µM
# [2] = second compound 0.1 µM, first compound 0.001 µM
# [3] = second compound 0.1 µM, first compound 0.00316 µM
# [4] = second compound 0.1 µM, first compound 0.01 µM
# [5] = second compound 0.1 µM, first compound 0.0316 µM
# [6] = second compound 0.1 µM, first compound 0.1 µM
# [7] = second compound 0.316 µM, first compound 0.000316 µM
# [8] = second compound 0.316 µM, first compound 0.001 µM
# [9] = second compound 0.316 µM, first compound 0.00316 µM
# [10] = second compound 0.316 µM, first compound 0.01 µM
# [11] = second compound 0.316 µM, first compound 0.0316 µM
# [12] = second compound 0.316 µM, first compound 0.1 µM
# [13] = second compound 1 µM, first compound 0.000316 µM
# [14] = second compound 1 µM, first compound 0.001 µM
# [15] = second compound 1 µM, first compound 0.00316 µM
# [16] = second compound 1 µM, first compound 0.01 µM
# [17] = second compound 1 µM, first compound 0.0316 µM
# [18] = second compound 1 µM, first compound 0.1 µM
# [19] = second compound 3.16 µM, first compound 0.000316 µM
# [20] = second compound 3.16 µM, first compound 0.001 µM
# [21] = second compound 3.16 µM, first compound 0.00316 µM
# [22] = second compound 3.16 µM, first compound 0.01 µM
# [23] = second compound 3.16 µM, first compound 0.0316 µM
# [24] = second compound 3.16 µM, first compound 0.1 µM
# [25] = second compound 10 µM, first compound 0.000316 µM
# [26] = second compound 10 µM, first compound 0.001 µM
# [27] = second compound 10 µM, first compound 0.00316 µM
# [28] = second compound 10 µM, first compound 0.01 µM
# [29] = second compound 10 µM, first compound 0.0316 µM
# [30] = second compound 10 µM, first compound 0.1 µM
# 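Further: seven day compound exposure before luminescent viability read.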
# 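Wherever viability, T/C is given: 100% = DMSO vehicle control wells.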
Structure (SMILES),IC50 (second compound 0.1 µM) [nM],IC50 (second compound 0.316 µM) [nM],IC50 (second compound 1 µM) [nM],IC50 (second compound 3.16 µM) [nM],IC50 (second compound 10 µM) [nM],"viability, T/C [3] [%]","viability, T/C [4] [%]","viability, T/C [5] [%]","viability, T/C [6] [%]","viability, T/C [9] [%]","viability, T/C [10] [%]","viability, T/C [11] [%]","viability, T/C [12] [%]","viability, T/C [15] [%]","viability, T/C [16] [%]","viability, T/C [17] [%]","viability, T/C [18] [%]","viability, T/C [21] [%]","viability, T/C [22] [%]","viability, T/C [23] [%]",also measured
CC(C)CC(NC(=O)C(Cc1ccccc1)NC(=O)c1cnccn1)B(O)O (stereo not given) + NC1CC1c1ccc(-c2cccc(O)c2)cc1,< 0.316,< 0.316,< 0.316,< 0.316,< 0.316,0.47,0.39,0.14,0.17,0.24,0.18,0.18,0.17,0.21,0.19,0.22,0.17,0.17,0.14,0.46,"viability, T/C [1]: 21.2%; viability, T/C [2]: 1.11%; viability, T/C [7]: 18.8%; viability, T/C [8]: 1.91%; viability, T/C [13]: 16.9%; viability, T/C [14]: 1.68%; viability, T/C [19]: 15.4%; viability, T/C [20]: 0.61%; viability, T/C [24]: 0.31%; viability, T/C [25]: 12.3%; viability, T/C [26]: 0.8%; viability, T/C [27]: 0.29%; viability, T/C [28]: 0.54%; viability, T/C [29]: 0.45%; viability, T/C [30]: 0.25%"
CC(C)CC(NC(=O)CNC(=O)c1cc(Cl)ccc1Cl)B1OC(=O)CC(CC(=O)O)(C(=O)O)O1 (stereo not given) + NC1CC1c1ccc(-c2cccc(O)c2)cc1,5.69,5.54,4.78,4.64,3.67,81.5,19.6,3.61,1.34,80.4,17.9,3.08,1.87,68.2,17.2,3.17,1.85,67.8,14.5,2.89,"viability, T/C [1]: 88.2%; viability, T/C [2]: 93.4%; viability, T/C [7]: 80%; viability, T/C [8]: 84.3%; viability, T/C [13]: 66.2%; viability, T/C [14]: 74%; viability, T/C [19]: 70.7%; viability, T/C [20]: 71.2%; viability, T/C [24]: 1.44%; viability, T/C [25]: 61.6%; viability, T/C [26]: 67.1%; viability, T/C [27]: 55.4%; viability, T/C [28]: 11.8%; viability, T/C [29]: 2.07%; viability, T/C [30]: 0.75%"
COc1cc(Nc2ncc3c(n2)-c2ccc(Cl)cc2C(c2c(F)cccc2OC)=NC3)ccc1C(=O)O + NC1CC1c1ccc(-c2cccc(O)c2)cc1,< 3.16,< 3.16,< 3.16,< 3.16,< 3.16,36.8,40.9,37.5,31.9,39.2,44.5,37.5,31.4,37.2,35.9,34.6,26,30.4,36.5,35.2,"viability, T/C (second compound 0.1 µM, first compound 0.316 µM): 24.1%; viability, T/C (second compound 0.1 µM, first compound 1 µM): 16.4%; viability, T/C (second compound 0.316 µM, first compound 0.316 µM): 24.8%; viability, T/C (second compound 0.316 µM, first compound 1 µM): 16.5%; viability, T/C (second compound 1 µM, first compound 0.316 µM): 20.2%; viability, T/C (second compound 1 µM, first compound 1 µM): 15.9%; viability, T/C [24]: 28.1%; viability, T/C (second compound 3.16 µM, first compound 0.316 µM): 23.7%; viability, T/C (second compound 3.16 µM, first compound 1 µM): 15%; viability, T/C [27]: 34.2%; viability, T/C [28]: 32.7%; viability, T/C [29]: 34.2%; viability, T/C [30]: 28%; viability, T/C (second compound 10 µM, first compound 0.316 µM): 19.4%; viability, T/C (second compound 10 µM, first compound 1 µM): 14.9%"
